Test results: ChEMBL document CHEMBL1909046, “DrugMatrix in vitro pharmacology data”

Key:
[1] = target: 5-hydroxytryptamine receptor 6 (Homo sapiens, UniProt P50406); type: cell membranes, HeLa, Membrane; conditions: hela; also: in other assays of this panel Not Active means under 50% inhibition at 10 µM
[2] = target: T1, Muscarinic acetylcholine receptor M4 (Homo sapiens, UniProt P08173); type: cell membranes, CHO-K1, Membrane; conditions: cho-k1; also: in other assays of this panel Not Active means under 50% inhibition at 10 µM
T1 sequence (P08173 whole entry): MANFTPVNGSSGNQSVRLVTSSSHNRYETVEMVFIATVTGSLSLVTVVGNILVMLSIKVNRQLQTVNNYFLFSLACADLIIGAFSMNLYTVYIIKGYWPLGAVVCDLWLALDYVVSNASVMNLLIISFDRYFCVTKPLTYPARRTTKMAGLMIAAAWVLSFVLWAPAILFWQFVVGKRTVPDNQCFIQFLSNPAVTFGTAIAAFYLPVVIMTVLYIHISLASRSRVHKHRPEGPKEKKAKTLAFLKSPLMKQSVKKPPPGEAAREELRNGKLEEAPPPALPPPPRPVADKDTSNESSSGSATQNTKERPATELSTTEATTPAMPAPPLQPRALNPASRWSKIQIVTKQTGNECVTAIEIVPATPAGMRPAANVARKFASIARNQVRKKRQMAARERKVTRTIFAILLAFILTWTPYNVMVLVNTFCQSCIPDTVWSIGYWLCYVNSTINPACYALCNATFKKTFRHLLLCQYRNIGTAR

Nitric oxide synthase 1 = Nitric oxide synthase 1 (Rattus norvegicus, UniProt P29476); type: tissue-based, Cerebellum; also: in other assays of this panel Not Active means under 50% inhibition at 10 µM
Nitric oxide synthase 1, sequence (P29476 whole entry): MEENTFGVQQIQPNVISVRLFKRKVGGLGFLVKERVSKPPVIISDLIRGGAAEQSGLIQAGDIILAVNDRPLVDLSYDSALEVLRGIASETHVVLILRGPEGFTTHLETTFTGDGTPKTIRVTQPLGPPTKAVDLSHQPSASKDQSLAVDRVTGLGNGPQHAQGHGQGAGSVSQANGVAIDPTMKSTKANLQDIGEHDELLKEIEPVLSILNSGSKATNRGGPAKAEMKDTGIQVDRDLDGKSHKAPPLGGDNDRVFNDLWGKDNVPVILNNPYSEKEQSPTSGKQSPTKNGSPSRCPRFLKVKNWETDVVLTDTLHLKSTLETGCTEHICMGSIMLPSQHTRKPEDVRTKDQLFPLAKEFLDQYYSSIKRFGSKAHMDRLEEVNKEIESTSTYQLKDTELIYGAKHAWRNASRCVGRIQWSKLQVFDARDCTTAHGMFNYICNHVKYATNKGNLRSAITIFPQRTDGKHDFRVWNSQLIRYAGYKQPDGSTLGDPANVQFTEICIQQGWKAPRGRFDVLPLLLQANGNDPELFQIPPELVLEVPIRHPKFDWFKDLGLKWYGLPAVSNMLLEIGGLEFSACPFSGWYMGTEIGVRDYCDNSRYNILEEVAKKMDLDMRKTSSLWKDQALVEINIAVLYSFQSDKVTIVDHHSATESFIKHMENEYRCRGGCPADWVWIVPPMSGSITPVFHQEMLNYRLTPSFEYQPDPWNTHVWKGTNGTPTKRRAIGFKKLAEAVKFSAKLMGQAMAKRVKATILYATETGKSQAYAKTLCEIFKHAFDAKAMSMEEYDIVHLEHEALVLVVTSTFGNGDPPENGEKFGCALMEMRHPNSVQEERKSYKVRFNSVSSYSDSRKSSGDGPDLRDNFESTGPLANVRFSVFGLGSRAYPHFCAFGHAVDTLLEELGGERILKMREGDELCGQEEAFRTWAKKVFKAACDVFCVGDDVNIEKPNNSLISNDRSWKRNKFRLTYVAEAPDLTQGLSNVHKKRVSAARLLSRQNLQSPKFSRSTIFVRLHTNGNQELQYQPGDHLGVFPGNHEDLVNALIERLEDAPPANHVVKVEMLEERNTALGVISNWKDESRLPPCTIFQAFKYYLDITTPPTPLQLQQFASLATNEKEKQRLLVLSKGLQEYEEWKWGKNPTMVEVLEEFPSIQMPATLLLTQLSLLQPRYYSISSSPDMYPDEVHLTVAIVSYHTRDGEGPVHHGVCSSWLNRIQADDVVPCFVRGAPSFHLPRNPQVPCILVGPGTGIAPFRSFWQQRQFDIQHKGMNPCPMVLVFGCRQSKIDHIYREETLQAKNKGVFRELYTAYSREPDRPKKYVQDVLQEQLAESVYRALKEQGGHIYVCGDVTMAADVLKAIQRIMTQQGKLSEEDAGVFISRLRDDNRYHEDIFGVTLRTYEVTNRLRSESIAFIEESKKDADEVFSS

[3] = DRUGMATRIX: Glutamate, AMPA radioligand binding (ligand: [3H] AMPA); type: cell membranes, Rattus norvegicus, Wistar, Cerebral cortex, Membrane; conditions: Not Active = under 50% inhibition at 10 µM
Endothelin-1 receptor = target: T2, Endothelin-1 receptor (Homo sapiens, UniProt P25101); type: cell membranes, Membrane; conditions: cho-k1; also: in other assays of this panel Not Active means under 50% inhibition at 10 µM
T2 sequence (P25101 whole entry): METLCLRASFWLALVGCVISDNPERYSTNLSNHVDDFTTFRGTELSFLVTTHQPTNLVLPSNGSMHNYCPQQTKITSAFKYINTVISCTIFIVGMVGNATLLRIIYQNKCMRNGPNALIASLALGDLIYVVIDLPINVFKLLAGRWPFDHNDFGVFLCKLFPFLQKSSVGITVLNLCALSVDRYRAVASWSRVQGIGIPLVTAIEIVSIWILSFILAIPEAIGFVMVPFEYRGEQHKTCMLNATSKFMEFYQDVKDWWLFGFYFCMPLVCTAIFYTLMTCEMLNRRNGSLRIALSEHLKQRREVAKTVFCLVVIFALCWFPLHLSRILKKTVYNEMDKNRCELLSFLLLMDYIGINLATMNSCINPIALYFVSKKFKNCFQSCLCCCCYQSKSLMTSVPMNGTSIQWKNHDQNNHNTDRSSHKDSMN

[4] = target: Tyrosine-protein kinase Fyn (Homo sapiens, UniProt P06241); test: biochemical; type: cell-based, Insect cells
Tyrosine-protein kinase Fyn, sequence (P06241 whole entry): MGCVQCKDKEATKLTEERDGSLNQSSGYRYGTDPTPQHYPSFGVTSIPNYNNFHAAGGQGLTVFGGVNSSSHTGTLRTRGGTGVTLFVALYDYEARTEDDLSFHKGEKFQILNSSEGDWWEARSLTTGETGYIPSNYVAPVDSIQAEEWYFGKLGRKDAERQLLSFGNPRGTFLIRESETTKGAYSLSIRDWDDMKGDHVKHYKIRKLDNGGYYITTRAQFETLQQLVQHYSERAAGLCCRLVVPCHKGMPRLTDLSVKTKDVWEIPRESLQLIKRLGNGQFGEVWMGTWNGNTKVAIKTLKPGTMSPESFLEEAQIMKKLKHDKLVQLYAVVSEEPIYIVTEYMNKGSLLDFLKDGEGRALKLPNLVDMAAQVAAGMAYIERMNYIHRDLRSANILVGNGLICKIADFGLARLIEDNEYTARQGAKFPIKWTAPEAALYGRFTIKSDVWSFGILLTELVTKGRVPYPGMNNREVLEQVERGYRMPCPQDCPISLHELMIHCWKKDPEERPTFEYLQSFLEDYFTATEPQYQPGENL

[5] = DRUGMATRIX: Phosphodiesterase PDE4 enzyme inhibition (substrate: [3H]cAMP + cAMP); conditions: u-937; Not Active = under 50% inhibition at 10 µM
[6] = target: 5-hydroxytryptamine receptor 2B (Homo sapiens, UniProt P41595); type: cell membranes, CHO-K1, Membrane; conditions: cho-k1; also: in other assays of this panel Not Active means under 50% inhibition at 10 µM
5-hydroxytryptamine receptor 2B, sequence (P41595 whole entry): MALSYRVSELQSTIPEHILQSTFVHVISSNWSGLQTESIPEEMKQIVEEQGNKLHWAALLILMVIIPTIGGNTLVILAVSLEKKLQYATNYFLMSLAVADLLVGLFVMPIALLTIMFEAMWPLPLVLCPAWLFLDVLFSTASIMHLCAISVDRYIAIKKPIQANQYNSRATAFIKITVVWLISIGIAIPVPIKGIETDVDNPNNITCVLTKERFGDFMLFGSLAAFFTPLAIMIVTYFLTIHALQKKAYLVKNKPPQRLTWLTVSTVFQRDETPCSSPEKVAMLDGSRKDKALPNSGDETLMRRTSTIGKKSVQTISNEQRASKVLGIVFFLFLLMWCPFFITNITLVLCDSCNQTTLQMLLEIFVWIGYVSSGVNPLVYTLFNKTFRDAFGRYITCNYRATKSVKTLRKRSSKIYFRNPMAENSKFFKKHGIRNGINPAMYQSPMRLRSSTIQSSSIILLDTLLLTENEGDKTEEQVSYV

Cytochrome P450 2A6 = target: T3, Cytochrome P450 2A6 (Homo sapiens, UniProt P11509); conditions: bti-tn-5b1-4; also: in other assays of this panel Not Active means under 50% inhibition at 10 µM
T3 sequence (P11509 whole entry): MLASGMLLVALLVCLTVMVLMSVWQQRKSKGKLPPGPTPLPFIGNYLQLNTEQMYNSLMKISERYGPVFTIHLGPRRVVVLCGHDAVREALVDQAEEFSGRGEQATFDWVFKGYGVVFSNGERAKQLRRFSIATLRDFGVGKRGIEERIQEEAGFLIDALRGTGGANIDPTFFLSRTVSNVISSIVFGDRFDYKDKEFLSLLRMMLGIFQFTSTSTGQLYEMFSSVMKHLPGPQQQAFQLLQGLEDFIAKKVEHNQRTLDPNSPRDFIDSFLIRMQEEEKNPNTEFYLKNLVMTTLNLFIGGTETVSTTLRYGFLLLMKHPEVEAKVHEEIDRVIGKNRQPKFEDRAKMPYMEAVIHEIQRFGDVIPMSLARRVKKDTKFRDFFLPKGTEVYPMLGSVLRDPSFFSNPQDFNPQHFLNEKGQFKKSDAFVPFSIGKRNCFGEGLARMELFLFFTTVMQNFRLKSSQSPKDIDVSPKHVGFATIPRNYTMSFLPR

[7] = DRUGMATRIX: Sodium/nucleoside co-transporter radioligand binding (ligand: nitrobenzylthioinosine); type: cell membranes, Cavia porcellus, Dunkin-Hartley, Cerebral cortex, Membrane; conditions: Not Active = under 50% inhibition at 10 µM
[8] = DRUGMATRIX: Serotonin (5-Hydroxytryptamine) 5-HT3 radioligand binding (ligand: [3H] GR-65630); type: cell membranes, Membrane; conditions: hek293; Not Active = under 50% inhibition at 10 µM
[9] = target: T4, Polyunsaturated fatty acid lipoxygenase ALOX15 (Oryctolagus cuniculus, UniProt P12530); test: biochemical; type: tissue-based, Reticulocytes; conditions: reticulocytes
T4 sequence (P12530 whole entry): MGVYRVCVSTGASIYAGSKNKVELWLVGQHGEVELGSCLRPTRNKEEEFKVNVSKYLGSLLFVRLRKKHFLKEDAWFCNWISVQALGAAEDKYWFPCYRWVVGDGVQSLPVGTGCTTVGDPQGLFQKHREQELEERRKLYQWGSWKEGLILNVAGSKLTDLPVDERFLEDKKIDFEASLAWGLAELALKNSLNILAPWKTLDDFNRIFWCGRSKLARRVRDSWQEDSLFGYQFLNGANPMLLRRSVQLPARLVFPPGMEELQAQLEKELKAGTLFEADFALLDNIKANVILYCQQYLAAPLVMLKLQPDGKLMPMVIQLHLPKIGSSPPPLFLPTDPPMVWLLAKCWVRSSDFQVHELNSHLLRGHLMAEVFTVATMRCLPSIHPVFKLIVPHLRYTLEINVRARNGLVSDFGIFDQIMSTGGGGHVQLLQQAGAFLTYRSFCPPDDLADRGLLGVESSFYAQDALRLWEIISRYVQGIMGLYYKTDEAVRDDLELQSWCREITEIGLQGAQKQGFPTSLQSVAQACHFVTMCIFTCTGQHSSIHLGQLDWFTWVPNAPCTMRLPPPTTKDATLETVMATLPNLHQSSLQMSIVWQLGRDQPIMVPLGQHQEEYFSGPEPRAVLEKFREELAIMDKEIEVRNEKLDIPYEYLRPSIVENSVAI

[10] = target: Mitogen-activated protein kinase 14 (Homo sapiens, UniProt Q16539); parameters: species or system Escherichia coli
Mitogen-activated protein kinase 14, sequence (Q16539 whole entry): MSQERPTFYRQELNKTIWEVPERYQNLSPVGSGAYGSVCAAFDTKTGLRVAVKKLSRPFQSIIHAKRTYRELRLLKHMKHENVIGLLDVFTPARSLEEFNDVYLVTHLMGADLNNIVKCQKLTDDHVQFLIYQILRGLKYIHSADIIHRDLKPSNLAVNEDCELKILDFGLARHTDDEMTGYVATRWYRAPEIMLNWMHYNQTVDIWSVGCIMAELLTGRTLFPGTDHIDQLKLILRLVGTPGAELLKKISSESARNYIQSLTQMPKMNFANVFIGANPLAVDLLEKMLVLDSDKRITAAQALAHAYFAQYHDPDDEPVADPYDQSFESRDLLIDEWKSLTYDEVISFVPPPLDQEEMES

[11] = DRUGMATRIX: Purinergic P2X radioligand binding (ligand: [3H] alpha, beta-Methylene-ATP); type: cell membranes, Oryctolagus cuniculus, New Zealand albino, Urinary bladder, Membrane; conditions: Not Active = under 50% inhibition at 10 µM

5-hydroxytryptamine receptor 6, sequence (P50406 whole entry): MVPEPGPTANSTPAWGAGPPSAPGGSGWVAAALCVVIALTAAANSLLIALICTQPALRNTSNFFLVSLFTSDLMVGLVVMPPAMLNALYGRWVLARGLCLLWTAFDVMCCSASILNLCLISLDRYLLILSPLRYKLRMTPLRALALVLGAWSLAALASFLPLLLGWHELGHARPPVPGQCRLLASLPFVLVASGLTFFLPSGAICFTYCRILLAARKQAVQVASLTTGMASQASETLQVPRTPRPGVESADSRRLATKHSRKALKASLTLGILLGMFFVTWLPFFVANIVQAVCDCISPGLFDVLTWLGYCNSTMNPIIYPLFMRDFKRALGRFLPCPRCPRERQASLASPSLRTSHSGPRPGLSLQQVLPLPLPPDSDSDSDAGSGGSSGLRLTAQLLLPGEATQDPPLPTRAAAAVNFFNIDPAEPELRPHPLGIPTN

| Compound | IC50 [1] | IC50 [2] | IC50 (Nitric oxide synthase 1) | IC50 [3] | Ki [3] | IC50 (Endothelin-1 receptor) | IC50 [5] | Ki [5] | IC50 [6] | IC50 (Cytochrome P450 2A6) | Ki (Cytochrome P450 2A6) | IC50 [7] | Ki [7] | IC50 [8] | Ki [8] | IC50 [9] | IC50 [10] | IC50 [11] | Ki [11] | IC50 ([4]; insect cells) | further results |
| --- | --- | --- | --- | --- | --- | --- | --- | --- | --- | --- | --- | --- | --- | --- | --- | --- | --- | --- | --- | --- | --- |
| c1ccc2c(c1)cc1ccc3cccc4ccc2c1c34 | Not Active | Not Active | Not Active | Not Active | Not Active | Not Active | Not Active | Not Active | Not Active | Not Active | Not Active | Not Active | Not Active | Not Active | Not Active | Not Active | Not Active | Not Active | Not Active | – | IC50 ([4]; read-out: IC50): 26.2 µM |
| CCOC(=O)c1ccc(N)cc1 [BENZOCAINE] | Not Active | Not Active | Not Active | Not Active | Not Active | Not Active | Not Active | Not Active | Not Active | Not Active | Not Active | Not Active | Not Active | Not Active | Not Active | Not Active | Not Active | Not Active | Not Active | Not Active | – |
| Oc1cccc2cccnc12 [OXYQUINOLINE] | Not Active | Not Active | Not Active | Not Active | Not Active | Not Active | Not Active | Not Active | Not Active | Not Active | Not Active | Not Active | Not Active | Not Active | Not Active | Not Active | Not Active | Not Active | Not Active | Not Active | – |
| COc1ccc2cc(CC(=O)O)ccc2c1 | Not Active | Not Active | Not Active | Not Active | Not Active | Not Active | Not Active | Not Active | Not Active | Not Active | Not Active | Not Active | Not Active | Not Active | Not Active | Not Active | Not Active | Not Active | Not Active | Not Active | – |
| O=C1CN=C(c2ccccc2)c2cc([N+](=O)[O-])ccc2N1 [NITRAZEPAM] | Not Active | Not Active | Not Active | Not Active | Not Active | Not Active | Not Active | Not Active | Not Active | Not Active | Not Active | Not Active | Not Active | Not Active | Not Active | Not Active | Not Active | Not Active | Not Active | Not Active | – |
